In patent US20250319110A1, “SURFACE CALR CHEMICAL INDUCERS” (THE CHILDREN'S MEDICAL CENTER CORPORATION, priority 2022, published 2025):
Structures can show the parent of a compound that is named as a salt. Where a SMILES comes first, the peptide text is derived from it. The star is where a group is joined. Cbz = O=C(OCc1ccccc1)*

Each molecule was assayed on reactive oxygen species (ROS) (assay: ROS production by CALR agonists (ROS+ / ROS− classification of screen hits)). Conditions: CALR agonists that do not stimulate ROS production or only to negligible levels.
Type: cell-based, human
Method: To systematically evaluate pathways triggering surface CALR, a panel of 1200 bioactive small molecules in human cells were screened. Surface CALR expression was evaluated by imaging a CALR-antibody coupled with a fluorophore and by a SPLIT-TURBO ID construct targeting the association of […] (Cadherin 2), a membrane protein, and CALR. 93 out of 1200 compounds screened increased surface CALR with a robust dosage response. Chemical annotation further supported that ROS+ drugs were associated with FOXO1A and oxidative stress, while the ROS− drugs were associated with G protein-coupled receptor signaling and cellular calcium ion homeostasis. In vivo ROS− drugs induced macrophage-stem cell interaction and grooming behavior, while ROS+ drugs enhanced the macrophage-stem cell interaction, but not grooming. Collectively, the work described herein has identified ROS as a signal that upregulates surface CALR and promotes macrophage-stem cell interactions, safeguarding the development of stem cells that are stressed or damaged.
As described in the examples herein, some CALR agonists do stimulate reactive oxygen species (ROS) production; or stimulate ROS production to statistically significant levels. This group of CALR agonists are referred to herein as “ROS+ CALR agonists.” ROS+ CALR agonists include Ibudilast; zaprinast; FK-520; AG1478; bongkrekic acid; GW9508; fusidic acid; beta-lapachone; fusaric acid; fenspiride; zardaverine; docosahexaenoic acid, loxoprofen; AG1480; flufenamic acid; and MG-132.
This group of CALR agonists are referred to herein as “ROS− CALR agonists.” ROS-CALR agonists include DL-threo-1-Phenyl-2-palmitoylamino-3-morpholino-1-propanol; cambinol; ganciclovir; 8-bromo-GMP; arvanil; thiocitrulline; and isoguvacine. In some embodiments, an at least one ROS− CALR agonist can be selected from the group consisting of: DL-threo-1-Phenyl-2-palmitoylamino-3-morpholino-1-propanol; ganciclovir; 8-bromo-GMP; arvanil; thiocitrulline; and isoguvacine.
A chemical screen was conducted to identify surface CALR inducers in a ROS-associated and a ROS-independent manner (FIG. 4). Hits from the screen was validated in vivo as CALR inducers (FIGS. 5A-5B). ROS− drugs tended to induce macrophage-stem cell interaction and proliferation. ROS+ drugs tended to promote dooming (FIGS. 6A-6C).

Which “ROS production class of CALR agonist” value does the source give for `O=c1[nH]c(=S)[nH]c(-c2ccccc2)c1Cc1c(O)ccc2ccccc12` [cambinol, 5-[(2-hydroxynaphthalen-1-yl)methyl]-6-phenyl-2-sulfanylidene-1H-pyrimidin-4-one] here?
Its value is “ROS−”.

Which “ROS production class of CALR agonist” value does the source give for `CCCCC/C=C\C/C=C\C/C=C\C/C=C\CCCC(=O)NCc1ccc(O)c(OC)c1` [arvanil, N-vanillylarachidonamide] here?
Its value is “ROS−”.

Which “ROS production class of CALR agonist” value does the source give for `Nc1nc2c(nc(Br)n2[C@@H]2O[C@H](COP(=O)(O)O)[C@@H](O)[C@H]2O)c(=O)[nH]1` [8-bromo-GMP, 8-bromo-guanosine monophosphate] here?
Its value is “ROS−”.

With `CSC(=N)NCCC[C@H](N)C(=O)O.Cl.Cl` [thiocitrulline, N^5-[imino(methylthio)methyl]-L-ornithine, dihydrochloride] as the molecule, how does the “ROS production class of CALR agonist” value read?
The value was “ROS−”.

`O=C(O)C1=CCNCC1` [isoguvacine, 1,2,3,6-tetrahydropyridine-4-carboxylic acid] was tested. Which “ROS production class of CALR agonist” value did it give?
The value was “ROS−”.

For `CCCCCCCCCCCCCCCC(=O)N[C@H](CN1CCOCC1)[C@H](O)c1ccccc1` (racemic) [DL-threo-1-Phenyl-2-palmitoylamino-3-morpholino-1-propanol], which “ROS production class of CALR agonist” value is on record?
The value was “ROS−”.

Which “ROS production class of CALR agonist” value does the source give for `Nc1nc(O)c2ncn(COC(CO)CO)c2n1` [ganciclovir, 2-Nor-2′-deoxyguanosine] here?
Its value is “ROS−”.

Same assay, conditions: CALR agonists that stimulate ROS production

Which “ROS production class of CALR agonist” value does the source give for `CCCOc1ccccc1-c1nc2n[nH]nc2c(=O)[nH]1` [zaprinast, 5-(2-propoxyphenyl)-2,6-dihydrotriazolo[4,5-d]pyrimidin-7-one] here?
The value was “ROS+”.

With `CC(C)C(=O)c1c(C(C)C)nn2ccccc12` [Ibudilast, 2-methyl-1-(2-propan-2-ylpyrazolo[1,5-a]pyridin-3-yl)propan-1-one] as the molecule, how does the “ROS production class of CALR agonist” value read?
Its value is “ROS+”.

With `CO[C@H](C/C=C\C=C\CC/C=C/C[C@H](C)/C=C/C(=C\C(=O)O)CC(=O)O)/C(C)=C\C=C(/C)C(=O)O` [bongkrekic acid, (2E,4Z,6R,8Z,10E,14E,17S,18E,20Z)-20-(carboxymethyl)-6-methoxy-2,5,17-trimethyldocosa-2,4,8,10,14,18,20-heptaenedioic acid] as the molecule, how does the “ROS production class of CALR agonist” value read?
Its value is “ROS+”.

How did the “ROS production class of CALR agonist” value turn out when `CC(C(=O)O)c1ccc(CC2CCCC2=O)cc1` (racemic) [loxoprofen, (RS)-2-{4-[(2-oxocyclopentyl)methyl]phenyl}propanoic acid] was run?
Its value is “ROS+”.

Which “ROS production class of CALR agonist” value does the source give for `CC(C)C[C@@H](C=O)NC(=O)[C@H](CC(C)C)NC(=O)[C@H](CC(C)C)NC(=O)OCc1ccccc1` [MG-132, benzyl N-[(2S)-4-methyl-1-[[(2S)-4-methyl-1-[[(2S)-4-methyl-1-oxopentan-2-yl]aamino]-1-oxopentan-2-yl]amino]-1-oxopentan-2-yl]carbamate] (Cbz-Leu-Leu-Leu-aldehyde) here?
Its value is “ROS+”.

With `O=C(O)CCc1ccc(NCc2cccc(Oc3ccccc3)c2)cc1` [GW9508, 4-[[(3-phenoxyphenyl)methyl]amino]-benzenepropanoic acid] as the molecule, how does the “ROS production class of CALR agonist” value read?
The value was “ROS+”.

With `CC1(C)CCC2=C(O1)c1ccccc1C(=O)C2=O` [beta-lapachone, 2,2-dimethyl-3,4-dihydrobenzo[h]chromene-5,6-dione] as the molecule, how does the “ROS production class of CALR agonist” value read?
The value was “ROS+”.

With `COc1cc(-c2ccc(=O)[nH]n2)ccc1OC(F)F` [zardaverine, 6-[4-(difluoromethoxy)-3-methoxyphenyl]-3(2H)-pyridazinone] as the molecule, how does the “ROS production class of CALR agonist” value read?
The value was “ROS+”.

With `CCCCc1ccc(C(=O)O)nc1` [fusaric acid] as the molecule, how does the “ROS production class of CALR agonist” value read?
Its value is “ROS+”.

For `CC/C=C\C/C=C\C/C=C\C/C=C\C/C=C\C/C=C\CCC(=O)O` [docosahexaenoic acid], which “ROS production class of CALR agonist” value is on record?
The value was “ROS+”.

`CC[C@@H]1/C=C(\C)C[C@H](C)C[C@H](OC)[C@H]2O[C@@](O)(C(=O)C(=O)N3CCCC[C@H]3C(=O)O[C@H](/C(C)=C/[C@@H]3CC[C@@H](O)[C@H](OC)C3)[C@H](C)[C@@H](O)CC1=O)[C@H](C)C[C@@H]2OC` [FK-520, ascomycin] was tested. Which “ROS production class of CALR agonist” value did it give?
Its value is “ROS+”.

How did the “ROS production class of CALR agonist” value turn out when `COc1cc2ncnc(Nc3cccc(Cl)c3)c2cc1OC` [AG1478, N-(3-chlorophenyl)-6,7-dimethoxyquinazolin-4-amine] was run?
The value was “ROS+”.

With `O=C1NCC2(CCN(CCc3ccccc3)CC2)O1` [fenspiride, 8-(2-phenylethy)-1-oxa-3,8-diazaspiro[4.5]decan-2-one, monohydrochloride] as the molecule, how does the “ROS production class of CALR agonist” value read?
Its value is “ROS+”.

How did the “ROS production class of CALR agonist” value turn out when `CC(=O)O[C@H]1C[C@@]2(C)[C@@H](C[C@@H](O)[C@H]3[C@@]4(C)CC[C@@H](O)[C@@H](C)[C@@H]4CC[C@@]32C)/C1=C(\CCC=C(C)C)C(=O)O` [fusidic acid] was run?
The value was “ROS+”.

How did the “ROS production class of CALR agonist” value turn out when `O=C(O)c1ccccc1Nc1cccc(C(F)(F)F)c1` [flufenamic acid, 2-[3-(trifluoromethyl)anilino]benzoic acid] was run?
The value was “ROS+”.
